melting point [°C] | Compound
164 | OB(O)c1cccc(C(F)(F)F)c1 [3-(trifluoromethyl)benzeneboronic acid]
117 | C[C@@H]1CN[C@@H](C)CN1 [trans-2,5-dimethylpiperazine]
-10 | CCCCCCCCCCCC [N-dodecane]
21 | OC1CCCCC1 [Cyclohexanol]
136 | COC(=O)c1cccc(B(O)O)c1 [3-(methoxycarbonyl)benzeneboronic acid]
170 | CC(C)NCC(O)COc1cccc2[nH]ccc12 (stereo not drawn) [pindolol]
101 | N#CC(=Cc1ccc(Cl)cc1)C(N)=O [3-(4-chlorophenyl)-2-cyanoacrylamide]
163 | OCc1c2ccccc2cc2ccccc12 [9-anthracenemethanol]
178 | Cc1cc(CC(=O)O)n(C)c1C(=O)c1ccc(Cl)cc1 [Zomepirac]
113 | Nc1ccc(OCCCCCN2C(=O)c3ccccc3C2=O)cc1 [amphotalide]
83 | CN(C)c1cccc(O)c1 [3-(Dimethylamino)phenol]
16 | N#Cc1cccc(C(F)(F)F)c1 [3-(trifluoromethyl)benzonitrile]
20 | CC(=O)c1ccccc1N [o-aminoacetophenone]
165 | O=c1[nH]c(=O)n([C@H]2C[C@H](O)[C@@H](CO)O2)cc1I [Idoxuridine]
160 | O=C(O)c1c(O)cccc1F [6-fluorosalicylic acid]
-46 | CC(C)C(=O)O [Isobutyric Acid]
23 | Sc1ccccc1S [1,2-benzenedithiol]
282 | Oc1ccc(-c2ccc(O)cc2)cc1 [4,4'-dihydroxybiphenyl]
120 | COc1cc(OC)c(C=O)c(OC)c1 [2,4,6-trimethoxybenzaldehyde]
253 | CC1CCc2cc(F)cc3c(=O)c(C(=O)O)cn1c23 (stereo not drawn) [flumequine]
103 | NS(=O)(=O)Cc1ccccc1 [alpha-toluenesulfonamide]

melting point [°C] | Compound
176 | C[C@]12CC[C@@H]3c4ccc(O)cc4CC[C@H]3[C@@H]1CC[C@@H]2O [estradiol]
229 | Cc1c(C)c(/C=CC(C)=CC=CC(/C)=CC(=O)O)c(C)cc1OC [Acitretin]
34 | Cc1ccc(I)cc1 [4-iodotoluene]
163 | CC(=O)ON(/C=C1\C(=O)C2(C)CCC1C2(C)C)c1ccccc1 (stereo not drawn)
158 | O=C(/C=C/c1ccc(-c2ccc([N+](=O)[O-])cc2)o1)c1ccccc1 [(2E)-3-[5-(4-Nitrophenyl)-2-furyl]-1-phenylprop-2-en-1-one]
122 | COC(=O)c1ccc(OC)c(C#N)c1 [methyl 3-cyano-4-methoxybenzoate]
77 | c1ccc2ccccc2c1 [Naphthalene]
53 | c1ccc(Nc2ccccc2)cc1 [Diphenylamine]
124 | CCOC(=O)c1cc(C(=O)OCC)c([N+](=O)[O-])cc1[N+](=O)[O-] [diethyl 4,6-dinitrobenzene-1,3-dicarboxylate]
156 | COc1ccc2[nH]c(S(=O)Cc3ncc(C)c(OC)c3C)nc2c1 (stereo not drawn) [omeprazole]
220 | O=C(O)c1cc(/N=N/c2ccc(S(=O)(=O)Nc3ccccn3)cc2)ccc1O [Sulfasalazine]
208 | O=c1[nH][nH]c(=O)n1-c1ccccc1 [4-phenylurazole]
115 | Cc1ccc2[nH]cnc2c1 [5-methylbenzimidazole]
-99 | CCOC(=O)CC(C)C [ethyl_isovalerate]
42 | CCCCCCCCCCCCOP(=O)(O)O [mono-n-dodecyl phosphate]
237 | O=C(O)c1cccc(Cl)c1[N+](=O)[O-] [3-chloro-2-nitrobenzoic acid]
195 | COc1ccc(/C=C/C(=O)O)c(Cl)c1OC [2-chloro-3,4-dimethoxycinnamic acid]
61 | Clc1ccc(Cl)nc1 [2,5-dichloropyridine]
180 | CN1Cc2c(N)cccc2C(c2ccccc2)C1 (stereo not drawn) [Nomifensine]
19 | COc1ccc2ncccc2c1 [6-methoxyquinoline]
94 | N#Cc1ccccc1O [2-cyanophenol]

melting point [°C] | Compound
-115 | C=COCC [Ethoxyethene]
48 | Cc1cccc(-c2nc(-c3ccccc3)cs2)c1 [4-phenyl-2-(m-tolyl)thiazole]
196 | CC(CCc1ccccc1)NCC(O)c1ccc(O)c(C(N)=O)c1 (stereo not drawn) [Labetalol]
152 | CC(=O)Nc1ccccc1C1C=c2ccccc2=N1 (stereo not drawn) [N-[2-(1H-indol-2-yl)phenyl]acetamide]
233 | Nc1ncnc(Nc2ccc(Cl)cc2)n1 [chlorazanil]
28 | ClCCOc1ccccc1 [b-chlorophenetole]
206 | Oc1ccc(-n2ccnc2)cc1 [4-(1-imidazolyl)phenol]
-47 | CCCCCCCC(=O)OCC [ethyl octanoate]
33 | Cc1ccc(N)cc1F [3-fluoro-4-methylaniline]
21 | CCCCCCCCCCC(C)=O [2-dodecanone]
85 | Cc1cccc2c1Cc1ccccc1-2 [1-methylfluorene]
100 | CCOC(=O)C(=Nn1nnc2ccccc21)C(=O)OCC [diethyl (1h-benzotriazol-1-yl)iminomalonate]
-94 | CCCCCCCl [1-chlorohexane]
50 | COC(=O)n1c(C)c(C)c2ccccc21 [methyl 2,3-dimethyl-1H-indole-1-carboxylate]
169 | Cc1cc(C)c(CC(=O)O)c(C)c1 [mesitylacetic acid]
41 | COc1cccc(C=O)c1O [2-hydroxy-3-methoxybenzaldehyde]
194 | COc1cc(N)c(Cl)cc1C(=O)NC1CCN(Cc2ccccc2)CC1 [clebopride]
8 | C=C(c1ccccc1)c1ccccc1 [1,1-diphenylethene]
41 | Oc1ccccc1 [phenol]
104 | O=C(O)c1cc(F)cc(C(F)(F)F)c1 [3-fluoro-5-(trifluoromethyl)benzoic acid]
-80 | CCCCCCS [1-hexanethiol]

melting point [°C] | Compound
142 | C=Cc1ccc(C(=O)O)cc1 [4-vinylbenzoic acid]
227 | O=C(O)c1ccc(-c2ccccc2)cc1 [p-phenylbenzoic_acid]
141 | CCCCCCCCOc1ccc(NC(=O)c2ccc(C)cc2)cc1 [4-methyl-N-[4-(octyloxy)phenyl]benzamide]
76 | O=C(O)Cc1ccc(Oc2ccccc2)cc1 [4-phenoxyphenylacetic acid]
84 | OC[C@@H]1[C@H](CO)[C@@H]2C=C[C@H]1C2 [5-norbornene-2-endo,3-endo-dimethanol]
34 | OCC=Cc1ccccc1 [cinnamyl_alcohol]
34 | Cc1cc(N)ccc1F [4-fluoro-3-methylaniline]
191 | CC[C@H]1OC(=O)[C@H](C)[C@@H](O[C@H]2C[C@@](C)(OC)[C@@H](O)[C@H](C)O2)[C@H](C)[C@@H](O[C@@H]2O[C@H](C)C[C@H](N(C)C)[C@H]2O)[C@](C)(O)C[C@@H](C)C(=O)[C@H](C)[C@@H](O)[C@]1(C)O [Erythromycin]
24 | NCCCCNCCCN [spermidine]
158 | CC(CCc1oc2c(Br)cc(Br)cc2c1-c1ccc(C)o1)=NO
241 | Cc1ccc2oc(-c3ccc(O)cc3)cc(=O)c2c1 [4'-hydroxy-6-methylflavone]
168 | O=C1[C@@H]2[C@H](C(=O)N1O)[C@@H]1C=C[C@H]2C1 [endo-n-hydroxy-5-norbornene-2,3-dicarboximide]
239 | Nc1nc2c(ncn2[C@@H]2O[C@@H](CO)[C@H](O)[C@H]2O)c(=O)[nH]1 [Guanosine]
8 | COC(=O)CCCCC(=O)OC [dimethyl adipate]
37 | O=S(=O)(Cl)c1ccc(F)cc1 [4-fluorobenzenesulfonyl chloride]
98 | CC(C)(C)OC(=O)N[C@](C)(C(=O)O)c1ccc2ccccc2c1 [N-boc-2-(2-naphthyl)-D-alanine]
69 | CCn1c2ccccc2c2ccccc21 [9-Ethyl-9H-carbazole]
102 | c1ccc2cc(C3CNCCN3)ccc2c1 (stereo not drawn) [2-(2-naphthyl)piperazine]
181 | CC(C)C1=C(O)C(=O)C2=C(CCC3C(C)(C)CCCC23C)C1=O (stereo not drawn) [7alpha-12-Hydroxy-8,12-abietadiene-11,14-dione]
70 | Cc1cc(Cl)c(C)cc1Cl [2,5-Dichloro-p-xylene]

Compound | melting point [°C]
[C-]#[N+]CS(=O)(=O)c1ccc(C)cc1 [p-toluenesulfonylmethyl isocyanide] | 112
O=C1Nc2ccc(Cl)cc2C(c2ccccc2Cl)=NC1O (stereo not drawn) [lorazepam] | 167
O=C(CCCN1CCC(n2c(=O)[nH]c3ccccc32)CC1)c1ccc(F)cc1 [benperidol] | 170
BrCCCCCCBr [1,6-Dibromohexane] | 2
COc1ccc(CCN2CCC(Nc3nc4ccccc4n3Cc3ccc(F)cc3)CC2)cc1 [Astemizole] | 149
FC(F)(F)c1ccc(Cl)cc1 [4-chlorobenzotrifluoride] | -36
Cc1ccccc1N [o-Toluidine] | -16
Oc1ccccc1Br [2-bromophenol] | 5.6
C=CCO [allyl alcohol] | -129
O=[N+]([O-])c1c(Cl)c(Cl)cc(Cl)c1Cl [2,3,5,6-tetrachloro-nitrobenzene] | 99.5
CCC1(CC)C(=O)NC(=O)NC1=O [Barbital] | 190
CC1(c2ccccc2)C(=O)NC(=O)NC1=O [heptobarbital] | 228
O=C(O)C(F)(F)C(F)(F)C(F)(F)C(F)(F)C(F)(F)C(F)(F)C(F)(F)C(F)(F)C(F)(F)F [Nonadecafluorodecanoic acid] | 78
COc1cc(Cl)ccc1O [4-chloro-2-methoxyphenol] | 17
COc1ccc(C(=O)O)cc1OC [3,4-dimethoxybenzoic acid] | 181

From the Bradley open melting point set (2014)
